The supplement of paper PMC10307832

Experiments:
Assay in all cases: relative viability (nuclei count vs DMSO), 5 days (fraction); higher = more cells survive
[1] = compound: CC1=CC(=CC=C1)NC2=NC(=CS2)C3=CC=NC=C3 + CC(=O)Nc1cccc(-n2c(=O)n(C3CC3)c(=O)c3c(Nc4ccc(I)cc4F)n(C)c(=O)c(C)c32)c1 [Trametinib] (partner 0.02 µM)
In short: (§1)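 The day after seeding in 1536-well plates, lung cancer cell lines were treated by pin tool with a single drug, or with a fixed anchor-drug dose together with five library-drug doses (not always all listed) in √10 steps. After 5 days, a combined fix-and-stain solution (final 0.05% Triton X-100, 1% formaldehyde, 1 ug/ml Hoechst) was added. Nuclei counted on 4× images gave relative viability as treated counts over vehicle counts, reported as the median of duplicate plates.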

[2] = compound: CC1=CC(=CC=C1)NC2=NC(=CS2)C3=CC=NC=C3 + CC(=O)c1c(C)c2cnc(Nc3ccc(N4CCNCC4)cn3)nc2n(C2CCCC2)c1=O [Palbociclib] (partner 0.5 µM)
In short: as §1

[3] = compound: CC1=CC(=CC=C1)NC2=NC(=CS2)C3=CC=NC=C3 + CC1(C)CCC(c2ccc(Cl)cc2)=C(CN2CCN(c3ccc(C(=O)NS(=O)(=O)c4ccc(N[C@H](CCN5CCOCC5)CSc5ccccc5)c(S(=O)(=O)C(F)(F)F)c4)cc3)CC2)C1 [Navitoclax] (partner 0.5 µM)
In short: as §1

[4] = compound: CC1=CC(=CC=C1)NC2=NC(=CS2)C3=CC=NC=C3 + C[C@]1(O)C[C@@H](c2nc(-c3ccc4ccc(-c5ccccc5)nc4c3)c3c(N)nccn32)C1 [Linsitinib] (partner 1 µM)
In short: as §1

| Cell Line | relative viability ([1]; first compound 0.08 µM) | relative viability ([1]; first compound 0.253 µM) | relative viability ([1]; first compound 0.8 µM) | relative viability ([1]; first compound 2.53 µM) | relative viability ([1]; first compound 8 µM) | relative viability ([2]; first compound 0.08 µM) | relative viability ([2]; first compound 0.253 µM) | relative viability ([2]; first compound 0.8 µM) | relative viability ([2]; first compound 2.53 µM) | relative viability ([2]; first compound 8 µM) | relative viability ([3]; first compound 0.08 µM) | relative viability ([3]; first compound 0.253 µM) | relative viability ([3]; first compound 0.8 µM) | relative viability ([3]; first compound 2.53 µM) | relative viability ([3]; first compound 8 µM) | relative viability ([4]; first compound 0.08 µM) | relative viability ([4]; first compound 0.253 µM) | relative viability ([4]; first compound 0.8 µM) | relative viability ([4]; first compound 2.53 µM) | relative viability ([4]; first compound 8 µM) |
| --- | --- | --- | --- | --- | --- | --- | --- | --- | --- | --- | --- | --- | --- | --- | --- | --- | --- | --- | --- | --- |
| 201T | 0.75 | 0.76 | 0.76 | 0.778 | 0.659 | 0.401 | 0.319 | 0.359 | 0.348 | 0.336 | 1.2 | 1.22 | 1.21 | 1.26 | 0.993 | 1.03 | 1.05 | 1 | 0.817 | 0.852 |
| A549 | – | – | – | – | – | – | – | – | – | – | 1.05 | 1.23 | 1.19 | 1.16 | 0.866 | 0.486 | 0.684 | 0.619 | 0.532 | 0.562 |
| A-427 | 0.572 | 0.716 | 0.714 | 0.719 | 0.624 | 0.473 | 0.531 | 0.485 | 0.538 | 0.5 | 0.955 | 0.962 | 0.899 | – | 0.875 | 1.16 | 1.03 | 1.09 | – | 1.12 |
| ABC-1 | – | – | – | – | – | 0.627 | – | 0.944 | 0.795 | 0.473 | – | – | – | – | – | 0.758 | 0.708 | 0.584 | 0.642 | 0.709 |
| BEN | 0.82 | 1.16 | 0.99 | 0.994 | 0.898 | 0.457 | 0.521 | 0.424 | 0.489 | 0.482 | 0.0747 | 0.0619 | 0.0712 | 0.0922 | 0.084 | 0.881 | 0.925 | 0.89 | 0.777 | 0.813 |
| CAL-12T | 0.282 | 0.325 | 0.342 | 0.236 | 0.305 | 0.402 | 0.414 | 0.391 | 0.329 | 0.586 | 1.19 | 1.06 | 1.16 | 1.05 | 1.24 | 0.766 | 0.801 | 0.747 | 0.847 | 0.847 |
| COR-L23 | 0.44 | 0.598 | 0.59 | 0.568 | 0.567 | 0.256 | 0.251 | 0.232 | 0.279 | 0.303 | 0.982 | 0.804 | 0.722 | 0.965 | 0.973 | 0.821 | 0.89 | 0.62 | 0.892 | 0.843 |
| COR-L 105 | 0.442 | 0.465 | 0.454 | 0.424 | 0.38 | 0.353 | 0.45 | 0.391 | 0.421 | 0.33 | 0.573 | 0.779 | 0.634 | 0.809 | 0.456 | 0.822 | 0.738 | 0.803 | 0.808 | 0.653 |
| Calu-6 | – | – | – | – | – | – | – | – | – | – | 0.748 | 0.685 | 0.763 | 0.773 | 0.711 | 0.765 | 0.934 | 0.871 | 0.879 | 0.756 |
| ChaGo-K-1 | 0.903 | 0.882 | 0.858 | 0.929 | 0.839 | 0.9 | 0.961 | 0.946 | 0.943 | 0.859 | 0.9 | 0.806 | 1.06 | 0.411 | 0.849 | – | – | – | – | – |
